Measured values from patent publication US8518946B2, “Salts of (R)-7-[3-amino-4-(2,4,5-trifluorophenyl)butanoyl]-3-trifluoromethyl-5,6,7,8-tetrahydroimidazo[1,5-a] pyrazine-1-carboxylic acid, preparation method and medical use thereof” (Jiangsu Hengrui Medicine Co., Ltd., priority 2009, dated 2013).
Where two headings read alike, the source gives them in different places.

Legend:
DPP-IV = biological target: T1, DPP-IV (Homo sapiens, UniProt P27487); test: DPP-IV inhibition, Promega DPPIV-Glo Protease Assay; type: biochemical
T1 construct: purchased Calbiochem 317630
T1 sequence (P27487 whole entry): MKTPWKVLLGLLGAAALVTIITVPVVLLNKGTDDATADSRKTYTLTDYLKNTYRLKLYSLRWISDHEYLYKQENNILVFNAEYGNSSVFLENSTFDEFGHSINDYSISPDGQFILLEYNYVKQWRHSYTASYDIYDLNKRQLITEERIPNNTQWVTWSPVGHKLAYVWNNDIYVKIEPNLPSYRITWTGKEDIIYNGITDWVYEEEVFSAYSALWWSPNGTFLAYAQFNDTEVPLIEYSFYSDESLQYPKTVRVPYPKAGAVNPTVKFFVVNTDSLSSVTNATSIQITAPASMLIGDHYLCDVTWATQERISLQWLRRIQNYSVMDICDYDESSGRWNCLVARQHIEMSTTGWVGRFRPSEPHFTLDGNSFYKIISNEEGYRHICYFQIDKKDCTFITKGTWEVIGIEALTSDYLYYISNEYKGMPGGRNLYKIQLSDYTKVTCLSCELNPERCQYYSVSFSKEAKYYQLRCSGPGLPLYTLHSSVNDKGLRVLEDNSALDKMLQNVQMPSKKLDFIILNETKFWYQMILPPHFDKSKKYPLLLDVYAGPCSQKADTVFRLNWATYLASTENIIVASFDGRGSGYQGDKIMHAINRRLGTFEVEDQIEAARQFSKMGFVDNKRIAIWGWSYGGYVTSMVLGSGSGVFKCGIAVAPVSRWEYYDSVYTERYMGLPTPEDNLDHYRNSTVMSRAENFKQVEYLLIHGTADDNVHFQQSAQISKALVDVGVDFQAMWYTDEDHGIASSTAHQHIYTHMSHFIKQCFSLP
Protocol: (§1) The compounds of the present invention were tested to determine their DPP-IV, DPP-VIII, DPP-IX inhibition activity according to the following methods. The half inhibition concentrations IC50 (the concentration of the test compound showing 50% inhibition to the enzyme activity) of each compound were determined by reaction test and calculation of the mixture of fixed amounts of enzyme and substrate with several different concentrations of the test compounds.
(§2) The compounds of the present invention were tested to determine the DPP-IV, DPP-VIII, DPP-IX inhibition activity in the following tests using Promega DPPIV-Glo™ Protease Assay (Cat No. G8350/G8351) Kit, wherein:
a. DPP-IV enzyme bought from Calbiochem, Catalog no. 317630;
(§3) The preparation procedure of the conventional reagent such as DPPIV-Glo buffer, luciferin reagents needed in the test and the detail operation of the test can refer to the specifications of the kits. The assay was carried out as following steps:
(§4) The tested compounds were dissolved in DMSO to prepare a series of different concentrations of the test compound solution. DPPIV-Glo buffer and the freezing luciferin detection reagent were equilibrated to room temperature. The luciferin detection reagent was dissolved in moderate buffer in a brown flask to form a solution. Then DPP-IV-Glo. was dissolved in ultrapure water to give the appropriate concentration. The substrate solution and the luciferin detection reagent solution were mixed sufficiently in an appropriate ratio (the ratio of the invention is 1:49), and the mixture was layed at room temperature for 30-60 minutes. Tris buffer (2 mM, pH 8.0), the test compounds and DPP-IV (DPP-VIII or DPP-IX) were mixed and then transferred to a 96-well plate. Each test contains double-well of three-well control. The same volume of DMSO was added to the negative control and blank control. Then the 96-well plate was added with mixed solution of luciferin detection reagent and substrate to initiate the reaction. The 96-wells plate was incubated at room temperature on a plate shaker for 40 minutes after sealed. The strength of the fluorescent signal in each well was determined by microplate reader and the inhibition rate to the enzyme of the compound at this concentration was calculated by the formula as following: inhibitory rate: IR=[1−(S−B)/(N−B)]*100% • S: value of the sample • B: value of the blank control • N: value of the negative control
(§5) IC50 of the test compounds can be calculated by the inhibition rate at different concentration.

[1] = Solubility experiment in four systems; type: physicochemical
Protocol: According to the conventional solubility measurement, the solubility of the test samples were determined in four different systems: phosphate buffer solution (PBS, pH=7.4), methanol, 0.1% hydrochloric acid and water.

DPP-IX = biological target: T2, DPP-IX (Homo sapiens, UniProt Q86TI2); test: DPP-IX inhibition, Promega DPPIV-Glo Protease Assay; type: biochemical; conditions: read-out: IC50 DPP9
T2 construct: purchased Bioscience 80090
T2 sequence (Q86TI2 whole entry): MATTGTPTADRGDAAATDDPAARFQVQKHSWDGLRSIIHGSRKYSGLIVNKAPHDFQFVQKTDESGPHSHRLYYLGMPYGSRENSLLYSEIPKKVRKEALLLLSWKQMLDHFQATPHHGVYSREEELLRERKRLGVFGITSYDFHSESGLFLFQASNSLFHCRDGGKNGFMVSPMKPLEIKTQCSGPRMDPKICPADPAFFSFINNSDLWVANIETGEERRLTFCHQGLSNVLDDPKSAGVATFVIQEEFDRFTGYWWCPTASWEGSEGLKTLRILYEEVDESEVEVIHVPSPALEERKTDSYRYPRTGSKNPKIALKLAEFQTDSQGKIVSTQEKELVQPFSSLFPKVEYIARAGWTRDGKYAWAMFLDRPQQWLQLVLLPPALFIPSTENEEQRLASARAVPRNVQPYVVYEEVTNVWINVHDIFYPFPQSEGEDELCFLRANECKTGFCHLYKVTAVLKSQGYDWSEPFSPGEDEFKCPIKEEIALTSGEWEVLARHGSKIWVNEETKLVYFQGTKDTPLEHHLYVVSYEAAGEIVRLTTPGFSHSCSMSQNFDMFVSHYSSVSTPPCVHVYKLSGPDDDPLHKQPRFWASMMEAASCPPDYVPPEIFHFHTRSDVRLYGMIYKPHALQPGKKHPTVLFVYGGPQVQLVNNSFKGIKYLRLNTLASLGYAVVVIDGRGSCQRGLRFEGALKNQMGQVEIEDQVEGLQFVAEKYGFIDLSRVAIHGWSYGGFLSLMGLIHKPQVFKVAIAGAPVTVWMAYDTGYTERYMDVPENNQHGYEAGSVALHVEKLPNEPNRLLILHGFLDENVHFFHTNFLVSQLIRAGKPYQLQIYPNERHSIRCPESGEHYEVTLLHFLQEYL
Protocol: as §1, §2
c. DPP-IX enzyme bought from Bioscience, Catalog no. 80090.
as §3, §4, §5

[2] = Pharmacokinetics assay in rats (LC/MS/MS plasma concentration); type: in vivo, SD rats; conditions: for half-life / AUC(0-t) / CL/F / Cmax / MRT / Tmax / Vd/F: intragastric 3.0 mg/kg; for MRT: read-out: MRT; for Tmax: read-out: Tmax; for Vd/F: read-out: Vz/F; for F: intragastric 3.0 mg/kg (as free base), absolute bioavailability from AUC0-t vs vein injection
Text: The compound of Example 3 was administrated intragastrically or tail vein injection to rats and the compounds of Example 1-4, Example 9 and Example 11-12 were administrated intragastrically to determine the drug concentration in plasma at different time points by LC/MS/MS measurement. The pharmacokinetics of the compounds of the present invention was studied and evaluated in rats. And the oral absolute bioavailability was investigated.
Compounds of Example 1-4, Example 9 and Example 11-12.
[…] healthy adult SD rats, male and female in half, were purchased from SINO-BRITSH SIPPR/BK LAB.ANIMAL LTD., CO, License number: SCXK (Shanghai) 2008-0016.
Vein injection group: the proper weighed test compound was dissolved in 0.5 mL of DMSO by ultrasound and then diluted with normal saline to 15 mL to form a 0.3 mg/mL solution.
Intragastrically administered group: the proper weighed test compound was dissolved in 0.5% CMC-Na by ultrasound to form a 0.3 mg/mL of suspension.
32 healthy adult SD rats, male and female in half, were divided into 8 groups so that each group consisted 4 rats. After an overnight fast, the rats were tail vein injected of the compound of Example 3 and intragastrically administered the compound of Example 3 and the salt thereof, at a dose of 3.0 mg/kg (calculated as the free base form) and a volume of 10 mL/kg.
Blood samples (0.2 mL) of the rats in vein injection group were taken from eye socket at pre administration and at 2, 15, 30 minutes and 1.0, 2.0, 4.0, 6.0, 8.0, 12.0, 24.0 hours post administration, which were stored in heparinized tubes and centrifuged for 10 minutes at 3,500 rpm. The plasma samples were stored at −20° C. until analysis. The rats were fed 2 hours after administration.
Blood samples of the rats in intragastrically administered group were taken at pre administration and at 0.5, 1.0, 2.0, 3.0, 4.0, 6.0, 8.0, 12.0, 24.0 hours post administration. The samples were treated with the same method as mentioned above.
50 μL of internal standard solution and 150 μL of methanol were added to 50 μL of rat plasma obtained at various time points after administration. Then the mixture was mixed for 3 minutes using a vortexer and centrifuged for 10 minutes at 13,500 rpm. 10 μL of the supernatant was analyzed by LC/MS/MS.
The compartmental model of pharmacokinetics was fitted for the test compounds and the major pharmacokinetic parameters were calculated by DAS 2.0 software in which Cmax and tmax were the actually measured values. The absolute bioavailability was calculated by AUC0-t taken from post administration and vein injection.

normal ICR mice = test: Hypoglycemic effect, oral glucose tolerance in normal ICR mice; type: in vivo; conditions: 10 mg/kg by gavage, glucose 4 g/kg 15 minutes after administration
Protocol: To observe the effects on oral glucose tolerance of the compounds of Example 1-4 and Example 8-12 in normal ICR mice (SINO-BRITSH SIPPR/BK LAB.ANIMAL LTD., CO), the hypoglycemic effects in vivo have been evaluated using blood-glucose meter to measure and analyze the sugar content of the samples at different time points during 2 hours. The samples were taken from the mouse's tail.
The administration dose was 10 mg/kg, and the blank was administered with water. Both groups contained 5% DMSO.
The mice were administered by gavage. 4 g/kg of 10% glucose solution was administered (0.8 mL to each mice) 15 minutes after administration.
The mice were administered according to above dose (the blank group was administrated with 5% DMSO aqueous solution) and the blood sugar value was measured (−15 minutes).
15 minutes after administration, the mice were administered of 4 g/kg of 20% glucose solution and the values of blood sugar were tested by Roche ACCU-CHEK at 0, 15, 30, 45, 60, 120 minutes.

DPP-VIII = biological target: T3, DPP-VIII (Homo sapiens, UniProt Q6V1X1); test: DPP-VIII inhibition, Promega DPPIV-Glo Protease Assay; type: biochemical; conditions: read-out: IC50 DPP8
T3 construct: purchased Bioscience 80080
T3 sequence (Q6V1X1 whole entry): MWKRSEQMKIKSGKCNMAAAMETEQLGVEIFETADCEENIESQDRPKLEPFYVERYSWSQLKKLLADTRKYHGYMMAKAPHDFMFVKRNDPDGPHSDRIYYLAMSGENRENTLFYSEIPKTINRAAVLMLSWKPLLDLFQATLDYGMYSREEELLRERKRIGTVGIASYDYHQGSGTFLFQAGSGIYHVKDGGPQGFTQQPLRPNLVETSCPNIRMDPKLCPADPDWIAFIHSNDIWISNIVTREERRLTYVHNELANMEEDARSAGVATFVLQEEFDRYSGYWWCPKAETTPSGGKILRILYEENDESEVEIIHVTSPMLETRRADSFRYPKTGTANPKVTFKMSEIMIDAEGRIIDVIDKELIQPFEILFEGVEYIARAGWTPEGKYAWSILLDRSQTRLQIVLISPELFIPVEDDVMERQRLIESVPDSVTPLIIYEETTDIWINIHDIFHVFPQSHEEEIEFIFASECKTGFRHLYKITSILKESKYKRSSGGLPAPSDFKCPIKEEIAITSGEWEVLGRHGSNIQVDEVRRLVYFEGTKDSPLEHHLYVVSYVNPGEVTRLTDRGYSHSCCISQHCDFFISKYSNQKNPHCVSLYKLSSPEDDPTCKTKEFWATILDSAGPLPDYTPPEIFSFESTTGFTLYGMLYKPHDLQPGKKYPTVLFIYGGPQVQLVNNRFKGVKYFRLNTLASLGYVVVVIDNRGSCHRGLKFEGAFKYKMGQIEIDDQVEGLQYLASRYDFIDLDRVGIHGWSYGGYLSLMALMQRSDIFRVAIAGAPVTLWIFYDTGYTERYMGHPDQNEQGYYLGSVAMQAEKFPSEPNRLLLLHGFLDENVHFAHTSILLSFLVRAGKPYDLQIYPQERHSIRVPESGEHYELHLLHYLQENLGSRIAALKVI
Protocol: as §1, §2
b. DPP-VIII enzyme bought from Bioscience, Catalog no. 80080;
as §3, §4, §5

[3] = 0.1% hydrochloric acid, simulated gastric fluid, 0.1% hydrochloric acid, read-out: Solubility Value, 0.1% HCl
[4] = methanol, organic solvent or mixture, methanol, read-out: Solubility Value, methanol
[5] = phosphate buffer solution (PBS), pH 7.4, aqueous buffer, PBS pH 7.4, read-out: Solubility Value, PBS (pH 7.4)
[6] = water, read-out: Solubility Value, water
[7] = both sexes, SD, rat, plasma, po, 3 mg/kg
[8] = both sexes, SD, rat, plasma, po, 3 mg/kg, read-out: AUC0-t
[9] = both sexes, SD, rat, plasma, po, 3 mg/kg, read-out: CL/F (converted)
[10] = both sexes, SD, rat, plasma, po, 3 mg/kg, read-out: Cmax

Structure (SMILES) | IC50 (DPP-IV) [µM] | solubility [1, 3] [mg/mL] | solubility [1, 4] [mg/mL] | solubility [1, 5] [mg/mL] | solubility [1, 6] [mg/mL] | IC50 (DPP-IX) [µM] | half-life [2, 7] [h] | AUC(0-t) [2, 8] [µg·h/mL] | CL/F [2, 9] [L/h/kg] | Cmax [2, 10] [µg/mL] | MRT [2, 7] [h] | Tmax [2, 7] [h] | Vd/F [2, 7] [L/kg] | F [2] [%] | Hypoglycemic rate of blood sugar of 30 minutes after administration (normal ICR mice) [%] | IC50 (DPP-VIII) [µM] | other results
N[C@@H](CC(=O)N1CCn2c(C(F)(F)F)nc(C(=O)[O-])c2C1)Cc1cc(F)c(F)cc1F.[Na+] [Example 4, Sodium (R)-7-[3-amino-4-(2,4,5-trifluorophenyl)butanoyl]-3-trifluoromethyl-5,6,7,8-tetrahydro-imidazo[1,5-a]pyrazine-1-carboxylate] | 0.022 | 94.8 | 46.7 | 57.4 | 43.5 | 42.3 | 2.65 ± 0.94 | 0.0666 ± 0.0106 | 43.7 | 0.0142 ± 0.002 | 4.3 ± 0.6 | 1.75 ± 0.96 | 164 ± 56 | 2.90 | 9.49 | 77.3 | 
N[C@@H](CC(=O)N1CCn2c(C(F)(F)F)nc(C(=O)O)c2C1)Cc1cc(F)c(F)cc1F [Example 9, 2-Hydroxyethylammonium (R)-7-[3-amino-4-(2,4,5-trifluorophenyl)butanoyl]-3-trifluoromethyl-5,6,7,8-tetrahydro-imidazo[1,5-a]pyrazine-1-carboxylate] | 0.012 |  |  |  |  | 128 | 3.18 ± 0.71 |  |  |  | 4.34 ± 0.66 | 1.25 ± 0.5 |  | 4.06 |  | 114 | Solubility Value, 0.1% HCl ([1]; 0.1% hydrochloric acid): 12.6 mg/mL; Solubility Value, PBS (pH 7.4) ([1]; PBS pH 7.4): 0.3 mg/mL; Solubility Value, methanol ([1]; methanol): 35.2 mg/mL; Solubility Value, water ([1]; water): 1.0 mg/mL; AUC(0-t) [2]: 0.0932 ± 0.0364 µg·h/mL; CL/F [2]: 32.9 ± 10.0 L/h/kg; Cmax [2]: 0.0251 ± 0.0139 µg/mL; Hypoglycemic rate of blood sugar of 30 minutes after administration (normal ICR mice; 10 mg/kg): 27.56%
N[C@@H](CC(=O)N1CCn2c(C(F)(F)F)nc(C(=O)O)c2C1)Cc1cc(F)c(F)cc1F.O=C(O)C[C@H](O)C(=O)O [Example 11, (R)-7-[3-Amino-4-(2,4,5-trifluorophenyl)butanoyl]-3-trifluoromethyl-5,6,7,8-tetrahydro-imidazo[1,5-a]pyrazine-1-carboxylic acid (2S)-2-hydroxybutanedioic acid] | 0.009 | 32.6 | 5.4 | 19.5 | 22.2 | 180 | 2.21 ± 0.69 | 0.0695 ± 0.0252 | 46.6 | 0.0135 ± 0.0039 | 4.5 ± 1.32 | 1.63 ± 1.11 | 140 ± 39 | 3.03 | 20.18 | 280 | 
N[C@@H](CC(=O)N1CCn2c(C(F)(F)F)nc(C(=O)O)c2C1)Cc1cc(F)c(F)cc1F.O=C(O)C(O)C(O)C(=O)O [Example 12, (R)-7-[3-Amino-4-(2,4,5-trifluorophenyl)butanoyl]-3-trifluoromethyl-5,6,7,8-tetrahydro-imidazo[1,5-a]pyrazine-1-carboxylic acid (2S,3S)-2,3-dihydroxybutanedioic acid] | 0.012 | 33.8 | 0.5 | 12.3 | 19.5 | 135 | 2.54 ± 0.86 | 0.0746 ± 0.0217 | 40.3 | 0.017 ± 0.0069 | 4.23 ± 0.84 | 1.75 ± 0.5 | 154 ± 77 | 3.25 | 24.11 | 244 | 
